Assay: Aqueous solubility of compound by LC-MS/MS analysis
Type: physicochemical
Settings: not given

| Structure (SMILES) | solubility |
| --- | --- |
| COc1cc2ncnc(Nc3c(F)ccc(O)c3C)c2cc1OC | > 100 µM |

Assay: Cytotoxicity in mouse BA/F3 cells after 48 hrs by Cell titre glo-based luminescence assay
Settings: BaF3, 48 h

| Structure (SMILES) | IC50 |
| --- | --- |
| COc1cc2ncnc(Nc3cccc(O)c3)c2cc1OC | > 10 µM |
| COc1cc2ncnc(Nc3cccc(O)c3O)c2cc1OC | > 10 µM |
| COc1cc2ncnc(Nc3cc(F)cc(O)c3C)c2cc1OC | > 10 µM |
| COc1cc2ncnc(Nc3c(F)ccc(O)c3Cl)c2cc1OC | > 10 µM |
| COc1cc2ncnc(Nc3cccc(O)c3Br)c2cc1OC | > 10 µM |
| COc1cc2ncnc(Nc3c(Cl)ccc(O)c3F)c2cc1OC | > 10 µM |
| COc1cc2ncnc(Nc3c(F)ccc(O)c3F)c2cc1OC | > 10 µM |
| COc1cc2ncnc(Nc3cccc(O)c3C)c2cc1OC | > 10 µM |
| COc1cc2ncnc(Nc3cccc(O)c3Cl)c2cc1OC | > 10 µM |
| COc1cc2ncnc(Nc3c(F)ccc(O)c3C)c2cc1OC | > 10 µM |
| COc1cc2ncnc(Nc3cc(O)c(C)cc3F)c2cc1OC | > 1 µM |

— ChEMBL document CHEMBL3774350, “The discovery of 2-substituted phenol quinazolines as potent RET kinase inhibitors with improved KDR selectivity” (Eur J Med Chem, 2016)
